Test results as given in BindingDB's records for PubMed 33486199 (Queen Mary University of London, 2021).

Target: T1, fMet-Leu-Phe receptor (Homo sapiens, UniProt P21462)
T1 sequence (P21462 whole entry): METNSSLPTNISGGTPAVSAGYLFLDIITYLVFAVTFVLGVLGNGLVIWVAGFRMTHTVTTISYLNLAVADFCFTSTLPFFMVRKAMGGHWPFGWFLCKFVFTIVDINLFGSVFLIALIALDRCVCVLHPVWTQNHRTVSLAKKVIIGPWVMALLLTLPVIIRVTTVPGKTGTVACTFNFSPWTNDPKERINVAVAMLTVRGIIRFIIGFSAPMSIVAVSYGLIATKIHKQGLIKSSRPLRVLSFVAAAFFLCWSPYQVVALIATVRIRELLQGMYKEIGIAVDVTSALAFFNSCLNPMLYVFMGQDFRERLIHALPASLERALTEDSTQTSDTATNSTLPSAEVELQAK
Experiment: Agonist activity at human FPR1 expressed in CHO cells assessed as cAMP level incubated for 1.5 hr by HTRF assay

SMILES	EC50 [µM]
O=C(Nc1ccc(Cl)cc1F)N[C@@H]1CCN(c2ccc(-c3cnn(C(F)F)c3)c(F)c2F)C1=O [US10676431, Example 79]	> 10
CP(C)(=O)c1ccccc1-c1ccc(N2CC(CO)[C@@H](NC(=O)Nc3ccc(Cl)cc3F)C2=O)c(F)c1F (some centres not stated) [US10676431, Example 125]	> 10
